Assay results published in patent publication US8012503B2, “Method of enhancing absorptions of transmucosal administration formulations” (The Chinese University of Hong Kong, priority 2004, dated 2011).
Values after ≈ are worked out from the molar mass of the structure shown.

Assays:
[1] = Solubility of ionized and non-ionized forms and ionization constant; format: physicochemical
Description: (§1) [formula] in which Ka is the ionization constant (dissociation constant) of the active compound of the medicament in water, Si is the solubility of the ionized form of the compound, and Su is the solubility of the non-ionized form of the compound. Si and Su can be easily obtained by measuring the drug solubility at two extreme pH levels where the ionized or non-ionized species are dominating. For example, after determining the Si and Su of propranolol and sildenafil, their pHmax values are calculated to be 7.62 and 4.25, respectively.
(§2) It has been investigated that permeability across the sublingual mucosa is dependent on the concentration of non-ionized propranolol in the environment. When a formulation of propranolol provides saliva with pH of about 7.2 to about 7.8, propranolol should maintain relatively high solubility as well as high fraction of non-ionized form in the saliva of human oral cavity. Preferably, the formulation for sublingual delivery is at about pH 7.6. This can be confirmed by equation (I). For propranolol.

[2] = pHmax calculated from Ka, Si and Su; format: physicochemical; conditions: calculated after determining Si and Su
Description: [formula] in which Ka is the ionization constant (dissociation constant) of the active compound in water, Si is the solubility of the ionized form of the compound, and Su is the solubility of the non-ionized form of the compound.
as §1, §2

[3] = oral administration of propranolol tablets, cited from earlier work

| solubility [1] [µg/mL] | pHmax [2] | Structure (SMILES) | onset of action [3] | plasma half-life [3] [h] | bioavailability ([3]; hepatic first-pass effect) |
| --- | --- | --- | --- | --- | --- |
| 539 (≈ 2080 µM) | 7.62 | CC(C)NCC(O)COc1cccc2ccccc12 (stereo not drawn) [propranolol, 1-(isopropylamino)-3-(1-naphthyloxy)-2-propanol] | over 1 hr | 2.8 to 4.4 | 10-30% |
|  | 4.25 | CCCc1nn(C)c2c(=O)[nH]c(-c3cc(S(=O)(=O)N4CCN(C)CC4)ccc3OCC)nc12 [sildenafil] |  |  |  |
